Experimental data: US10538497B2, “Compounds as indoleamine 2,3-dioxygenase inhibitors” (Merck Sharp & Dohme Corp., priority 2015, dated 2020)

Experiments:
IDO1 [1] = molecular target: T1, IDO1 (Homo sapiens (Human), UniProt P14902); experiment: IDO1 Cellular Assay in Frozen HEK293 Cells Transiently Transfected with Human IDO1; type: cell-based; conditions: HEK293 cells transiently transfected with human IDO1; read-out: IDO1 HEK293 Cell Assay, IC50
Method: IDO1 Cellular Assay in Frozen HEK293 Cells Transiently Transfected with Human IDO1
HEK293 cells were cultured in complete HEK293 culture medium (90% DMEM, 10% heat-inactivated fetal bovine serum). When reaching sub-confluent, the cells were trypsinized and neutralized with complete medium. […] Flag-IDO1 plasmid was added to the cell suspension at a concentration of 100 μg/mL. The cell-plasmid solutions were transferred to the OC-400 processing assembly (Maxcyte), 400 l/unit and the units were placed in a Maxcyte instrument to carry out flow electroporation for transfection. The cells were then transferred to a sterile 24-well cell culture plate to recover for 20-30 min at 37° C. in an incubator with 5% CO2.
Frozen HEK293/IDO1 and HEK293 WT cells were thawed and transferred into HEK293 assay medium (99% complete HEK293 culture medium, 1% Pen/Strep) with 20 mL medium/vial of cells. The cells were spun down at 250 g in a table top centrifuge for 5 min and suspended in same volume of HEK293 assay medium. […] Sterile L-tryptophan were added to the cells with final concentration of 300 μM.
(§1) HEK293/IDO1 and HEK293 WT cells were dispensed to the respective wells of 384-well assay plates containing the compounds. The plates were incubated for about 28-30 h at a 37° C., 5% CO2 incubator. […] The plates were centrifuged for 1 min at 200×g. The resulting fluorescence was measured in a Spectramax plate reader (Molecular Devices) with a 400 nm excitation filter and a 510 nm emission filter.

IDO1 [2] = molecular target: T1, IDO1; experiment: IDO1 Enzyme Assay; conditions: read-out: IDO1 Enzyme Assay, IC50; HIS-tagged recombinant IDO1, 40 nM
IDO1 [3] = molecular target: T1, IDO1; experiment: IDO1 Cellular Assay in Hela Cells Stimulated with IFNγ; type: cell-based; conditions: Hela cells stimulated with IFNγ 100 ng/mL; read-out: IDO1 HELA Cell Assay, IC50
Method: IDO1 Cellular Assay in Hela Cells Stimulated with IFNγ
Hela cells were cultured in complete Hela culture medium (90% EMEM, 10% heat-inactivated fetal bovine serum) and expanded to about 1×10^9 cells. The cells were then collected and frozen down at 10×10^6 cells/vial in 1 mL frozen medium (90% complete Hela culture medium, 10% DMSO)
Frozen Hela cells were thawed and transferred into Hela assay medium (99% complete Hela culture medium, 1% Pen/Strep) with 20 mL medium/vial of cells. The cells were spun down at 250 g in a table top centrifuge for 5 min and suspended in same volume of Hela assay medium. The cells were then counted and adjusted to a density of 2×10^5 cells/ml in Hela assay medium. Sterile L-tryptophan were added to the cells with final concentration of 300 uM L-tryptophan. A small aliquot (2 mL/plate) of Hela cells were set aside and were not treated with IFNγ, to serve as the Max-E control. The rest of Hela cells were added with sterile IFNγ (Cat #285-IF, R & D systems) with a final concentration of 100 ng/mL.
as §1, with “Hela cells with” for “HEK293/IDO1”, “without IFNγ” for “HEK293 WT cells”, “48 hours” for “28-30 h”

T1 sequence (P14902 whole entry): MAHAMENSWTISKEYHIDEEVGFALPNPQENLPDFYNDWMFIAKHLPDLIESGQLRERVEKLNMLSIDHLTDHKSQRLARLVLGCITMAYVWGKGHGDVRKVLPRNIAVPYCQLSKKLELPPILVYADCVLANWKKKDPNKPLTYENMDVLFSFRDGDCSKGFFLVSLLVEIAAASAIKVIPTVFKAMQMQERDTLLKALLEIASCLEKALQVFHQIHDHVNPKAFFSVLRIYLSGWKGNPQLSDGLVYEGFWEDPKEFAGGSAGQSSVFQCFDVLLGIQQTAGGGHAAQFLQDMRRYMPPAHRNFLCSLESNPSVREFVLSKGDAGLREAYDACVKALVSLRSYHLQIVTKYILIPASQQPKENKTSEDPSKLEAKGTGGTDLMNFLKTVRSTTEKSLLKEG

Row | Structure (SMILES) | IC50 (IDO1 [1]) [nM] | IC50 (IDO1 [2]) [nM] | IC50 (IDO1 [3]) [nM]
1 | CC(C)(C)OC(=O)NCCSc1nonc1/C(=N/O)Nc1ccc(F)c(Br)c1 [Example 1, Tert-butyl (Z)-(2-((4-(N-(3-bromo-4-fluorophenyl)-N′-hydroxycarbamimidoyl)-1,2,5-oxadiazol-3-yl)thio)ethyl)carbamate] | 740 |  | 
2 | O/N=C(\Nc1ccc(F)c(Br)c1)c1nonc1O [Example 4, (Z)—N-(3-Bromo-4-fluorophenyl)-N′,4-dihydroxy-1,2,5-oxadiazole-3-carboximidamide] | 3700 | > 10000 | 
3 | O=S1(=O)NC[C@H](CSc2nonc2/C(=N/O)Nc2ccc(F)c(Cl)c2)N1 [Example 32, (R)—N-(3-chloro-4-fluorophenyl)-4-(((1,1-dioxido-1,2,5-thiadiazolidin-3-yl)methyl)thio)-N′-hydroxy-1,2,5-oxadiazole-3-carboximidamide] |  | 32 | 13.1
4 | O=S1(=O)NC[C@H](CSc2nonc2/C(=N/O)Nc2ccc(F)c(Br)c2)N1 [Example 33, (R)—N-(3-bromo-4-fluorophenyl)-4-(((1,1-dioxido-1,2,5-thiadiazolidin-3-yl)methyl)thio)-N′-hydroxy-1,2,5-oxadiazole-3-carboximidamide] |  | 53.5 | 26.3
5 | CC(C)(O)[C@@H](O)CSc1nonc1C(=NO)Nc1ccc(F)c(C#N)c1 [Example 38, (R)—N-(3-cyano-4-fluorophenyl)-4-((2,3-dihydroxy-3-methylbutyl)thio)-N′-hydroxy-1,2,5-oxadiazole-3-carboximidamide] |  | 144 | 118
6 | CC(C)(O)[C@H](O)CSc1nonc1C(=NO)Nc1ccc(F)c(C#N)c1 [Example 39, (S)—N-(3-cyano-4-fluorophenyl)-4-((2,3-dihydroxy-3-methylbutyl)thio)-N′-hydroxy-1,2,5-oxadiazole-3-carboximidamide] |  | 118 | 87.6
7 | O=c1cc(C(F)(F)F)cc(CSc2nonc2/C(=N/O)Nc2ccc(F)c(Br)c2)[nH]1 [Example 88, N-(3-bromo-4-fluorophenyl)-N′-hydroxy-4-({[6-oxo-4-(trifluoromethyl)-1,6-dihydropyridin-2-yl]methyl}sulfanyl)-1,2,5-oxadiazole-3-carboximidamide] |  | 173 | 174
8 | O=C(CSc1nonc1/C(=N/O)Nc1ccc(F)c(Br)c1)N1CCOCC1 [Example 193, N-(3-bromo-4-fluorophenyl)-N′-hydroxy-4-[(2-morpholin-4-yl-2-oxoethyl)sulfanyl]-1,2,5-oxadiazole-3-carboximidamide] |  | 73.8 | 143
9 | NS(=O)(=O)N[C@H](CO)CSc1nonc1/C(=N/O)Nc1ccc(F)c(Br)c1 [Example 194, N-(3-bromo-4-fluorophenyl)-N′-hydroxy-4-{[(2R)-3-hydroxy-2-(sulfamoylamino)propyl]sulfanyl}-1,2,5-oxadiazole-3-carboximidamide] |  | 51 | 47.1
10 | O=C(CSc1nonc1/C(=N/O)Nc1ccc(F)c(Br)c1)N1C[C@@H](O)[C@@H](O)C1 [Example 195, N-(3-bromo-4-fluorophenyl)-4-((2-((3S,4R)-3,4-dihydroxypyrrolidin-1-yl)-2-oxoethyl)thio)-N′-hydroxy-1,2,5-oxadiazole-3-carboximidamide] |  | 92.5 | 342
11 | O=C(CSc1nonc1/C(=N/O)Nc1ccc(F)c(Br)c1)N1CC[C@H](O)[C@@H](O)C1 [Example 196, N-(3-bromo-4-fluorophenyl)-4-((2-((3S,4S)-3,4-dihydroxypiperidin-1-yl)-2-oxoethyl)thio)-N′-hydroxy-1,2,5-oxadiazole-3-carboximidamide] |  | 62.3 | 132
12 | C[C@H](CO)NC(=O)CSc1nonc1/C(=N/O)Nc1ccc(F)c(Br)c1 [Example 197, (R)-2-((4-(N-(3-bromo-4-fluorophenyl)-N′-hydroxycarbamimidoyl)-1,2,5-oxadiazol-3-yl)thio)-N-(1-hydroxypropan-2-yl)acetamide] |  | 44.9 | 15.3
13 | O=C(CSc1nonc1/C(=N/O)Nc1ccc(F)c(Br)c1)N[C@H]1CCOC[C@H]1O [Example 198, 2-((4-(N-(3-bromo-4-fluorophenyl)-N′-hydroxycarbamimidoyl)-1,2,5-oxadiazol-3-yl)thio)-N-((3S,4S)-3-hydroxytetrahydro-2H-pyran-4-yl)acetamide] |  | 56 | 149
14 | CNS(=O)(=O)NC(=O)CSc1nonc1/C(=N/O)Nc1ccc(F)c(Br)c1 [Example 199, 2-((4-(N-(3-bromo-4-fluorophenyl)-N′-hydroxycarbamimidoyl)-1,2,5-oxadiazol-3-yl)thio)-N-(N-methylsulfamoyl)acetamide] |  | 57.8 | 508
15 | C[C@H](O)CNC(=O)CSc1nonc1/C(=N/O)Nc1ccc(F)c(Br)c1 [Example 200, (S)-2-((4-(N-(3-bromo-4-fluorophenyl)-N′-hydroxycarbamimidoyl)-1,2,5-oxadiazol-3-yl)thio)-N-(2-hydroxypropyl)acetamide] |  | 29.9 | 14.9
16 | C[C@@H](O)CNC(=O)CSc1nonc1/C(=N/O)Nc1ccc(F)c(Br)c1 [Example 201, (R)-2-((4-(N-(3-bromo-4-fluorophenyl)-N′-hydroxycarbamimidoyl)-1,2,5-oxadiazol-3-yl)thio)-N-(2-hydroxypropyl)acetamide] |  | 22.4 | 26.8
17 | O=C(CSc1nonc1/C(=N/O)Nc1ccc(F)c(Br)c1)NC1(CO)CC1 [Example 202, 2-((4-(N-(3-bromo-4-fluorophenyl)-N′-hydroxycarbamimidoyl)-1,2,5-oxadiazol-3-yl)thio)-N-(1-(hydroxymethyl)cyclopropyl) acetamide] |  | 20.2 | 12.2
18 | C[C@H](O)CNC(=O)CSc1nonc1/C(=N/O)Nc1ccc(F)c(Br)c1 [Example 203, (S)-2-((4-(N-(3-bromo-4-fluorophenyl)-N′-hydroxycarbamimidoyl)-1,2,5-oxadiazol-3-yl)thio)-N-(2-hydroxypropyl)acetamide] |  | 14.5 | 11.6
19 | CC(C)(Sc1nonc1/C(=N/O)Nc1ccc(F)c(Br)c1)C(=O)NC[C@@H](O)CO [Example 204, (R)-2-((4-(N-(3-bromo-4-fluorophenyl)-N′-hydroxycarbamimidoyl)-1,2,5-oxadiazol-3-yl)thio)-N-(2,3-dihydroxypropyl)-2-methylpropanamide] |  | 82.6 | 144
20 | C[C@@H](CO)NC(=O)CSc1nonc1/C(=N/O)Nc1ccc(F)c(Br)c1 [Example 205, (S)-2-((4-(N-(3-bromo-4-fluorophenyl)-N′-hydroxycarbamimidoyl)-1,2,5-oxadiazol-3-yl)thio)-N-(1-hydroxypropan-2-yl)acetamide] |  | 12.4 | 11.7
21 | CC(C)(NC(=O)CSc1nonc1/C(=N/O)Nc1ccc(F)c(Br)c1)C(O)CO (centres unmarked) [Example 208, 2-((4-(N-(3-bromo-4-fluorophenyl)-N′-hydroxycarbamimidoyl)-1,2,5-oxadiazol-3-yl)thio)-N-(3,4-dihydroxy-2-methylbutan-2-yl)acetamide] |  | 26.6 | 37.5
22 | NS(=O)(=O)NCCOc1nonc1/C(=N/O)Nc1ccc(F)c(Br)c1 [Example 212, N-(3-bromo-4-fluorophenyl)-N′-hydroxy-4-(2-(sulfamoylamino)ethoxy)-1,2,5-oxadiazole-3-carboximidamide] |  | 52 | 111
23 | NCCOc1nonc1/C(=N/O)Nc1ccc(F)c(Br)c1 [Example 213, 4-(2-aminoethoxy)-N-(3-bromo-4-fluorophenyl)-N′-hydroxy-1,2,5-oxadiazole-3-carboximidamide] |  | 130 | 607
24 | CS(=O)(=O)NCCOc1nonc1/C(=N/O)Nc1ccc(F)c(Br)c1 [Example 214, N-(3-bromo-4-fluorophenyl)-N′-hydroxy-4-(2-(methylsulfonamido)ethoxy)-1,2,5-oxadiazole-3-carboximidamide] |  | 205 | 44.4
